Experimental data taken from paper PMC11542721, “Molecular properties, including chameleonicity, as essential tools for designing the next generation of oral beyond rule of five drugs” (ADMET & DMPK, 2024).
Like-named read-outs stand apart in the source and are kept apart here.

How the values were obtained:
[1] = Ionization behaviour from variation of log k'80 PLRP-S at three pHs; type: physicochemical; conditions: for A/B: acid or base profile: log k'80 PLRP-S at acidic, neutral and basic pH
Source text: The ionization constant (usually reported as pKa) is an important parameter for evaluating ionizable molecules since it may have a decisive impact on the in vitro ADME properties. […] Since the experimental determination of pKa is not a trivial assay and a certain degree of expertise is required, Caron’s group observed that the ionization behaviour (not the pKa) of a molecule can be obtained by monitoring the variation of the log of the capacity factor in the PLRP-S system (log k'80 PLRP-S) vs. the pH [15]. […] In many cases, ionization is completely overlooked, and in some instances, it is predicted using standard calculators not designed for large, flexible molecules.
Then, we focused on experimental descriptors. We first explored the ionization behavior of the three PROTACS by monitoring the variation in log k'80 PLRP-s at three pHs.

[2] = cited from earlier work
[3] = IAM chromatography (log kw^IAM and Δ log kw^IAM); type: physicochemical; conditions: for log kw^IAM: IAM column, extrapolated to 0% organic solvent; for Δ log kw^IAM: polarity descriptor
Source text: Furthermore, RP-HPLC methods generate biomimetic environments. For example, immobilized artificial membrane (IAM) chromatography, first introduced by Charles Pidgeon and his colleagues, is used to simulate biological cell membranes. IAM columns consist of a monolayer of phosphatidylcholine covalently bound to an inert silica support . The reference descriptor is the logarithm of the capacity factor at 0% organic solvent (extrapolated value), named log kW^IAM. In the IAM system, the retention of charged molecules also depends on the electrostatic interactions with the phospholipid heads.
Without entering the method details that can be retrieved in the literature, Δ log kw^IAM represents the polarity of the analyte.

[4] = BRlogD chromatographic lipophilicity (octanol/water surrogate)
advanced breast cancer = tested on: advanced breast cancer; set-up: method as in doi:10.1016/j.annonc.2023.09.567; conditions: phase I and II, cited from earlier work
ER (estrogen receptor) = tested on: ER (estrogen receptor); set-up: method as in doi:10.1016/j.annonc.2023.09.567; conditions: tumor cell lines, in vitro; cited from earlier work
[5] = preclinical models; cited from earlier work
[6] = mouse; cited from earlier work
[7] = tested on: Bcl-xL (B-cell lymphoma extra-large); set-up: method as in PMID 32677976; conditions: cancer cells, preclinical studies; cited from earlier work
[8] = tested on: enzalutamide-insensitive tumours; set-up: method as in PMID 36508999; conditions: cited from earlier work
[9] = Chamelogk chromatographic chameleonicity descriptor (PLRP-S); type: physicochemical; conditions: Exp. minus Ext. log k' 100 PLRP-S
Experimental: Therefore, we recently implemented a chromatographic descriptor, Chamelogk, that measures chameleonicity in a unique and dynamic system. To obtain Chamelogk (Figure 5B), the first step involves the experimental determination of the capacity factor (log k' PLRP-S) at 50, 60, and 70 % of acetonitrile. Then, the linear correlation between the log k' PLRP-S and the percentage of MeCN is determined. The equation derived from the linear correlation is then applied to extrapolate the capacity factor at 100 % (called Ext. log k’ 100 PLRP-S). Then, the experimental value at 100 % MeCN is measured (named Exp. log k’ 100 PLRP-S) and the difference with the extrapolated value is calculated. Thus, Chamelogk is defined as the capacity factor difference (Δ log k') between the experimental log k' measured at 100 % MeCN (Exp. log k' 100) and the extrapolated value (Ext. log k’ 100), as shown by Equation 2 and Figure 5B.

[10] = RP-HPLC, surrogate of octanol/water

Row | SMILES | A/B: acid or base profile [1] | log kw^IAM [3] | Δ log kw^IAM [3] | chromatographic logD [4, 10] | Ionization state at pH 7 [1] | chromatographic logD [4] | Chamelogk [9] | Absorption [2] | Clinical activity (advanced breast cancer; advanced breast cancer patients) | Tolerability (advanced breast cancer; all doses orally administered) | ER degradation (ER (estrogen receptor)) | Oral bioavailability F [5] | Oral bioavailability F [6] | Degradation of Bcl-xL [7] | Tumour growth in vivo [8]
1 | Cc1ncsc1-c1ccc([C@H](C)NC(=O)[C@@H]2C[C@@H](O)CN2C(=O)[C@@H](NC(=O)CCCCCC(=O)N2CCN(CC[C@H](CSc3ccccc3)Nc3ccc(S(=O)(=O)NC(=O)c4ccc(N5CCN(CC6=C(c7ccc(Cl)cc7)CCC(C)(C)C6)CC5)cc4)cc3S(=O)(=O)C(F)(F)F)CC2)C(C)(C)C)cc1 [DT2216] | ampholyte | > 4 |  | > 6 |  |  |  | Intravenous |  |  |  |  | < 0.03% | selectively induced degradation of Bcl-xL | 
2 | C=C[C@@H]1C[C@]1(NC(=O)[C@@H]1C[C@@H](Oc2ncc(OC)c3ccc(Cl)cc23)CN1C(=O)[C@@H](NC(=O)OC(C)(C)C)C(C)(C)C)C(=O)NS(=O)(=O)C1CC1 [asunaprevir] | acidic |  |  |  |  |  |  |  |  |  |  |  |  |  | 

Second part, led by results:

Row | A/B: acid or base profile [1] | log kw^IAM [3] | Δ log kw^IAM [3] | chromatographic logD [4, 10] | Ionization state at pH 7 [1] | chromatographic logD [4] | Chamelogk [9] | SMILES | Absorption [2] | Clinical activity (advanced breast cancer; advanced breast cancer patients) | Tolerability (advanced breast cancer; all doses orally administered) | ER degradation (ER (estrogen receptor)) | Oral bioavailability F [5] | Oral bioavailability F [6] | Degradation of Bcl-xL [7] | Tumour growth in vivo [8]
3 | nonionizable |  |  |  |  |  |  | Cc1sc2c(c1C)C(c1ccc(Cl)cc1)=N[C@@H](CC(=O)Nc1ccc(OCCOCCOCCOCCNc3cccc4c3C(=O)N(C3CCC(=O)NC3=O)C4=O)cc1)c1nnc(C)n1-2 (stereo partly drawn) [ARV-825] |  |  |  |  |  |  |  | 
4 | basic and Base | 3.39 | 0.07 | 4.73 | predominantly neutral |  |  | O=C1CC[C@H](N2Cc3cc(N4CCN(CC5CCN(c6ccc([C@@H]7c8ccc(O)cc8CC[C@@H]7c7ccccc7)cc6)CC5)CC4)ccc3C2=O)C(=O)N1 [ARV-471, vepdegestrant] | Oral | showed clinical activity | well tolerated | up to 97% | > 30% |  |  | 
5 | basic and Base | 3.20 | 0.33 |  | predominantly neutral | 4.25 | 0.99 | N#Cc1ccc(O[C@H]2CC[C@H](NC(=O)c3ccc(N4CCC(CN5CCN(c6cc7c(cc6F)C(=O)N(C6CCC(=O)NC6=O)C7=O)CC5)CC4)nn3)CC2)cc1Cl (stereo partly drawn) [ARV-110, bavdegalutamide] | Oral |  |  |  | > 30% |  |  | significantly inhibited the growth
